Read-outs that look alike come from different tables or passages of the source.
Experiments:
[1] = system: HeLa human cervical tumor cells; test: Proliferation assay (HeLa+Paclitaxel); settings: read-out: Biological Assay 3: HeLa + Paclitaxel IC50, 3 nM paclitaxel, crystal violet;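 also: compounds at 0.001-10 µM added 4 h after paclitaxel, 92 h exposure, absorbance normalized to zero-point plate (0%) and untreated cells (100%), IC50 from 4-parameter fit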
Description: Proliferation Assay (HeLa+Paclitaxel):
Cultivated HeLa human cervical tumor cells (DSMZ ACC-57) were plated at a density of 3000 cells/well in a 96-well multititer plate in 200 μL of growth medium supplemented 10% fetal calf serum. After 24 hours, the cells of one plate (zero-point plate) were stained with crystal violet (see below). The medium of the other plates was supplemented with 3 nM of paclitaxel (Sigma-Aldrich) and the cells were incubated at 37° C. After 4 hours the test substances were added in various concentrations (0 μM, as well as in the range of 0.001-10 μM; the final concentration of the solvent dimethyl sulfoxide was adjusted to 0.1%) using a Hewlett-Packard HP D300 Digital Dispenser. The cells were incubated for another 92 hours at 37° C. in the presence of test substances. Cell proliferation was determined by staining the cells with crystal violet: the cells were fixed by adding 20 μL/measuring point of an 11% glutaric aldehyde solution for 15 minutes at room temperature. After three washing cycles of the fixed cells with water, the plates were dried at room temperature. The cells were stained by adding 100 μL/measuring point of a 0.1% crystal violet solution (pH 3.0). After three washing cycles of the stained cells with water, the plates were dried at room temperature. The dye was dissolved by adding 100 μL/measuring point of a 10% acetic acid solution. […] The change of cell number, in percent, was calculated by normalization of the measured values to the absorbtion values of the zero-point plate (=0%) and the absorbtion of the untreated (0 μm) cells (=100%). The IC50 values were determined by means of a 4 parameter fit.

[2] = molecular target: T1, catalytic domain of human Bub1 (amino acids 704-1085) (Homo sapiens, UniProt O43683); test: Bub1 kinase assay (TR-FRET); assay type: biochemical
T1 construct: catalytic domain of human Bub1 (amino acids 704-1085); His6 (N); made in house; host or cells: Hi5 insect cells
T1 sequence (O43683 704-1085): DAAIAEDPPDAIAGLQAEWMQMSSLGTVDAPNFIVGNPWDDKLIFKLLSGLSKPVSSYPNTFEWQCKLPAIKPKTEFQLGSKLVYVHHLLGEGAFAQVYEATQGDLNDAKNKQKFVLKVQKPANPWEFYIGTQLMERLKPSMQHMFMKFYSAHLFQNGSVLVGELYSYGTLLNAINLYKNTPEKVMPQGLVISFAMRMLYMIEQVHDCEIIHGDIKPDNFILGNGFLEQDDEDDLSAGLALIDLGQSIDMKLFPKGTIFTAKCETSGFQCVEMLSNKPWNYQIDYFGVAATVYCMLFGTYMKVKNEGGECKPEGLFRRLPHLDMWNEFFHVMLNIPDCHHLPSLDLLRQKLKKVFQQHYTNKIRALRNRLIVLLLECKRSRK
Summary of the method: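 Compounds from 2 mM DMSO stocks, serially diluted 1:3.4, incubated with enzyme at 22° C for 60 min. Stopped with EDTA, then 1 h with streptavidin-XL665, anti-phosphoserine antibody and Eu-labelled anti-mouse IgG. Phosphorylated biotin-peptide read by TR-FRET; IC50 by 4-parameter logistic fit.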

HeLa = test: Proliferation assay (HeLa cell line); settings: Homo sapiens, 96 h, read-out: Biological Assay 2: Proliferation assay (HeLa cell line) median IC50;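 also: crystal violet staining of cell number, scaled between a plate stained before dosing (0%) and cells left untreated (100%), compounds tested at 0.001-10 µM, IC50 via 4-parameter fit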
[3] = Biological Assay 1: Bub1 kinase assay median IC50, 10 μM ATP
[4] = 10 μM ATP, read-out: Biological Assay 1: Bub1 kinase assay median IC50

Row | Compound | IC50 [1] [nM] | IC50 [2, 3] [nM] | IC50 (HeLa) [nM] | IC50 [2, 4] [nM]
1 | Cc1cnccc1Nc1nc(-c2nn(Cc3c(F)cc(OCCO)cc3F)c3ccccc23)nc2c1CCC2 [Example 2-4-8, 2-{3,5-difluoro-4-[(3-{4-[(3-methylpyridin-4-yl)amino]-6,7-dihydro-5H-cyclopenta[d]pyrimidin-2-yl}-1H-indazol-1-yl)methyl]phenoxy}ethanol] | 370 | 5 | 1800 | 
2 | CC1(C)CCc2c(nc(-c3nn(Cc4c(F)cc(OCCO)cc4F)c4ccccc34)nc2Nc2ccncc2Cl)C1 [Example 2-6-25, 2-{4-[(3-{4-[(3-chloropyridin-4-yl)amino]-7,7-dimethyl-5,6,7,8-tetrahydroquin-azolin-2-yl}-1H-indazol-1-yl)methyl]-3,5-difluorophenoxy} ethanol] | 370 | 48 | 7600 | 
3 | Cc1cc(Nc2ccnc(C)n2)nc(-c2nn(Cc3c(F)cc(OCCO)cc3F)c3ccccc23)n1 [Example 2-6-27, 2-{3,5-difluoro-4-[(3-{4-methyl-6-[(2-methylpyrimidin-4-yl)amino]pyrimidin-2-yl}-1H-indazol-1-yl)methyl]phenoxy}ethanol] | 290 | 43 | 5100 | 
4 | COc1cnccc1Nc1cc(C(C)C)nc(-c2nn(Cc3c(F)cc(OCCO)cc3F)c3ccccc23)n1 [Example 2-6-29, 2-{3,5-difluoro-4-[(3-{4-isopropyl-6-[(3-methoxypyridin-4-yl)amino]pyrimidin-2-yl}-1H-indazol-1-yl)methyl]phenoxy}ethanol] | 210 |  | 1300 | 31
5 | COc1cnccc1Nc1nc(-c2nn(Cc3c(F)cc(OCCO)cc3F)c3ccccc23)nc(C)c1C [Example 2-6-31, 2-{3,5-difluoro-4-[(3-{4-[(3-methoxypyridin-4-yl)amino]-5,6-dimethylpyrimidin-2-yl}-1H-indazol-1-yl)methyl]phenoxy}ethanol] | 760 |  | 4900 | 6.7
6 | COc1cnccc1Nc1cc(C)nc(-c2nn(Cc3c(F)cc(OCCO)cc3F)c3ccccc23)n1 [Example 2-6-33, 2-{3,5-difluoro-4-[(3-{4-[(3-methoxypyridin-4-yl)amino]-6-methylpyrimidin-2-yl}-1H-indazol-1-yl)methyl]phenoxy}ethanol] | 1800 |  | 3500 | 5.7
7 | COc1cnccc1Nc1nc(-c2nn(Cc3c(F)cc(OCCO)cc3F)c3ccccc23)ncc1C [Example 2-6-34, 2-{3,5-difluoro-4-[(3-{4-[(3-methoxypyridin-4-yl)amino]-5-methylpyrimidin-2-yl}-1H-indazol-1-yl)methyl]phenoxy}ethanol] | 1100 |  | 3400 | 5.1
8 | Cc1cc(Nc2ccncc2OC(F)(F)F)nc(-c2nn(Cc3c(F)cc(OCCO)cc3F)c3ccccc23)n1 [Example 2-6-35, 2-(3,5-difluoro-4-{[3-(4-methyl-6-{[3-(trifluoromethoxy)pyridin-4-yl]amino}pyrimidin-2-yl)-1H-indazol-1-yl]methyl}phenoxy)ethanol] | 1300 |  | 2300 | 5.4
9 | COc1cnccc1Nc1nc(-c2nn(Cc3c(F)cc(OCCO)cc3F)c3ccccc23)ncc1C1CC1 [Example 2-6-36, 2-{4-[(3-{5-cyclopropyl-4-[(3-methoxypyridin-4-yl)amino]pyrimidin-2-yl}-1H-indazol-1-yl)methyl]-3,5-difluorophenoxy} ethanol] | 630 |  | 3400 | 9.6
10 | Cc1nccc(Nc2nc(-c3nn(Cc4c(F)cc(OCCO)cc4F)c4ccccc34)nc3c2CN(CC(F)(F)F)C3)n1 [Example 2-6-39, 2-{3,5-difluoro-4-[(3-{4-[(2-methylpyrimidin-4-yl)amino]-6-(2,2,2-trifluoroethyl)-6,7-dihydro-5H-pyrrolo[3,4-d]pyrimidin-2-yl}-1H-indazol-1-yl)methyl]phenoxy}ethanol] | 1500 | 55 | 7000 | 
11 | CCOc1cc(F)c(Cn2nc(-c3ncc(C4CN(CC(F)(F)F)C4)c(Nc4ccncc4)n3)c3ccccc32)c(F)c1 [Example 2-11-2, 2-[1-(4-ethoxy-2,6-difluorobenzyl)-1H-indazol-3-yl]-N-(pyridin-4-yl)-5-[1-(2,2,2-trifluoroeth-yl)azetidin-3-yl]pyrimidin-4-amine] | 120 | 20 | 3400 | 
12 | CCOc1cc(F)c(Cn2nc(-c3nc4c(c(Nc5cc(OC)ncn5)n3)CCC4)c3ccccc32)c(F)c1 [Example 2-12-26, 2-[1-(4-ethoxy-2,6-difluorobenzyl)-1H-indazol-3-yl]-N-(6-methoxypyrimidin-4-yl)-6,7-dihydro-5H-cyclopenta[d]pyrimidin-4-amine] | 1000 | 130 | 8000 | 
13 | CCOc1cc(F)c(Cn2nc(-c3nc4c(c(Nc5cc(C)nc(C)n5)n3)CCC4)c3ccccc32)c(F)c1 [Example 2-12-27, N-(2,6-dimethylpyrimidin-4-yl)-2-[1-(4-ethoxy-2,6-difluorobenzyl)-1H-indazol-3-yl]-6,7-dihydro-5H-cyclopenta[d]pyrimidin-4-amine] | 210 | 610 | 3100 | 
14 | CCOc1cc(F)c(Cn2nc(-c3nc4c(c(Nc5ccnc(NC(=O)C6CC6)c5)n3)CCC4)c3ccccc32)c(F)c1 [Example 2-12-28, N-[4-({2-[1-(4-ethoxy-2,6-difluorobenzyl)-1H-indazol-3-yl]-6,7-dihydro-5H-cyclopenta[d]pyrimidin-4-yl}amino)pyridin-2-yl]cyclopropanecarbox-amide] | 290 | 9.4 | 5300 | 

Other lines, results leading:

Row | IC50 [1] [nM] | IC50 [2, 3] [nM] | IC50 (HeLa) [nM] | IC50 [2, 4] [nM] | Compound
15 | 140 | 60 | 8600 |  | COCCOc1cc(F)c(Cn2nc(-c3nc4c(c(Nc5ccncc5Cl)n3)CCC4)c3ccccc32)c(F)c1 [Example 2-12-30, N-(3-chloropyridin-4-yl)-2-{1-[2,6-difluoro-4-(2-methoxyethoxy)benzyl]-1H-indazol-3-yl}-6,7-dihydro-5H-cyclopenta[d]pyrimidin-4-amine]
16 | 80 | 13 | 3900 |  | COCCOc1cc(F)c(Cn2nc(-c3nc4c(c(Nc5ccncc5OC)n3)CCC4)c3ccccc32)c(F)c1 [Example 2-12-31, 2-{1-[2,6-difluoro-4-(2-methoxyethoxy)benzyl]-1H-indazol-3-yl}-N-(3-methoxypyridin-4-yl)-6,7-dihydro-5H-cyclopenta[d]pyrimidin-4-amine]
17 | 530 | 330 | > 10000 |  | CCOc1cc(F)c(Cn2nc(-c3nc4c(c(Nc5cc(Cl)ncn5)n3)CCC4)c3ccccc32)c(F)c1 [Example 2-12-32, N-(6-chloropyrimidin-4-yl)-2-[1-(4-ethoxy-2,6-difluorobenzyl)-1H-indazol-3-yl]-6,7-dihydro-5H-cyclopenta[d]pyrimidin-4-amine]
18 | 110 | 3000 | 8800 |  | CCOc1cc(F)c(Cn2nc(-c3nc(CN4CCOCC4)cc(Nc4ncncc4C)n3)c3ccccc32)c(F)c1 [Example 2-12-38, 2-[1-(4-ethoxy-2,6-difluorobenzyl)-1H-indazol-3-yl]-N-(5-methylpyrimidin-4-yl)-6-(morpholin-4-ylmethyl)pyrimidin-4-amine]
19 | 770 | 26 | > 10000 |  | COCCOc1cc(F)c(Cn2nc(-c3nc(CN4CCOCC4)cc(Nc4ccnnc4)n3)c3ccccc32)c(F)c1 [Example 2-12-39, N-[2-{1-[2,6-difluoro-4-(2-methoxyethoxy)benzyl]-1H-indazol-3-yl}-6-(morpholin-4-ylmethyl)pyrimidin-4-yl]pyridazin-4-amine]
20 | 120 | 8.8 | 3500 |  | COCCOc1cc(F)c(Cn2nc(-c3nc(CN4CCOCC4)cc(Nc4ccncc4C)n3)c3ccccc32)c(F)c1 [Example 2-12-41, 2-{1-[2,6-difluoro-4-(2-methoxyethoxy)benzyl]-1H-indazol-3-yl}-N-(3-methylpyridin-4-yl)-6-(morpholin-4-ylmethyl)pyrimidin-4-amine]
21 | 240 | 16 | 3400 |  | COCCOc1cc(F)c(Cn2nc(-c3nc(CN4CCOCC4)cc(Nc4ccncc4OC)n3)c3ccccc32)c(F)c1 [Example 2-12-42, 2-{1-[2,6-difluoro-4-(2-methoxyethoxy)benzyl]-1H-indazol-3-yl}-N-(3-methoxypyridin-4-yl)-6-(morpholin-4-ylmethyl)pyrimidin-4-amine]
22 | 250 | 9.6 | 3600 |  | COCCOc1cc(F)c(Cn2nc(-c3nc(CN4CCOCC4)cc(Nc4ccncc4)n3)c3ccccc32)c(F)c1 [Example 2-12-43, 2-{1-[2,6-difluoro-4-(2-methoxyethoxy)benzyl]-1H-indazol-3-yl}-6-(morpholin-4-ylmethyl)-N-(pyridin-4-yl)pyrimidin-4-amine]
23 | 89 | 320 | 9600 |  | CCOc1cc(F)c(Cn2nc(-c3nc(CN4CCOCC4)cc(Nc4cc(C)nc(C)n4)n3)c3ccccc32)c(F)c1 [Example 2-12-44, N-(2,6-dimethylpyrimidin-4-yl)-2-[1-(4-ethoxy-2,6-difluorobenzyl)-1H-indazol-3-yl]-6-(morpholin-4-ylmethyl)pyrimidin-4-amine]
24 | 380 | 760 | > 10000 |  | CCOc1cc(F)c(Cn2nc(-c3nc(CN4CCOCC4)cc(Nc4cc(O)ncn4)n3)c3ccccc32)c(F)c1 [Example 2-12-45, 6-({2-[1-(4-ethoxy-2,6-difluorobenzyl)-1H-indazol-3-yl]-6-(morpholin-4-ylmethyl)pyrimidin-4-yl}amino)pyrimidin-4-ol]
